Results: patent US5089623A, “Certain imidate insecticides” (Imperial Chemical Industries Plc, priority 1990, dated 1992)

How the values were obtained:
Assay type in all cases: in vivo
[1] = tested on: Cabbage Looper [Trichoplusia ni (Hubner)]; test: Cabbage looper test (CL); settings: second-instar larvae, 3-5 days, percent in solution
Procedure: Test compounds were diluted in a 50-50 acetone-water solution. Cotyledons of hyzini squash (Calabacita abobrinha), approximately 1×1.5 inches, were immersed in the test solutions for 2-3 seconds and placed on a wire screen to dry. The dried leaves were placed in petri dishes containing a moistened piece of filter paper and infested with 5 second-instar cabbage looper larvae. The dishes were placed in a high humidity chamber. Mortality of the larvae was recorded 3-5 days later. Test concentrations ranged from 0.1% downward. The LC-50 value is expressed below in Table 3 under the heading "CL" in terms of percent of the test compound in solution.

[2] = tested on: Tobacco Budworm [Heliothis virescens (Fabricius)] eggs; test: Tobacco budworm egg test (TBW-E); settings: percent in solution
Source text: Eggs: Paper towel patches of 2-day old eggs of the tobacco budworm were dipped in acetone solutions of the test compound and placed in petri dishes containing a portion of larval rearing medium. […] Test concentrations ranged from 0.1% downward.

[3] = tested on: Housefly [Musca domestica]; test: Housefly insecticidal test (HF); settings: per 25 female houseflies, 48 hours

Row | Compound | LC50 CL [1] | LC50 TBW E [2] | LC50 HF [3]
1 | CC(C)C(=Nc1cccc(OC(F)(F)C(F)F)c1)OCc1cccc(Oc2ccc(F)cc2)c1 [Compound 288] | 0.0015% | > 0.1% | > 100 µg
2 | CC(C)C(=Nc1cccc(I)c1)OCc1cccc(Oc2ccccc2)c1 [Compound 136] | 0.004% | 0.08% | 9 µg
3 | CC(C)c1ccc(N=C(OCc2cccc(Oc3ccccc3)c2)C(C)(C)C)cc1 [Compound 165] | 0.007% | > 0.1% | > 100 µg
4 | CC(C)C(=Nc1ccc2c(c1)OC(C)(C)O2)OCc1cccc(Oc2ccc(Cl)cc2)n1 [Compound 468] | > 0.1% | > 0.1% | 50 µg
5 | COc1ccc(N=C(OCc2cccc(Oc3ccccc3)c2)C(C)C)cc1OC [Compound 169] | 0.009% | > 0.1% | 10 µg
6 | Cc1ccc(Cl)c(N=C(OCc2cccc(Oc3ccccc3)c2)C(C)C)c1 [Compound 93] | 0.005% | > 0.1% | 64 µg
7 | CC(C)C(=Nc1cccc(C(F)(F)F)c1)OCc1ccc(OCc2ccccc2)cc1 [Compound 476] | 0.015% | > 0.1% | > 100 µg
8 | CCCCC(=Nc1ccc(F)c(Cl)c1)OCc1cccc(Oc2ccccc2)c1 [Compound 121] | 0.1% | > 0.1% | > 100 µg
9 | CC(C)C(=Nc1ccc(Br)cc1F)OCc1cccc(Oc2ccccc2)c1 [Compound 79] | 0.003% | 0.05% | 6 µg
10 | CC(C)c1ccc(N=C(OCc2cccc(Oc3ccc(F)cc3)c2)C(C)(C)C)cc1 [Compound 322] | 0.007% | > 0.1% | > 100 µg
11 | CCC(C)C(=Nc1ccc(Cl)c(Cl)c1)OCc1cccc(Oc2ccccc2)c1 (stereo not drawn) [Compound 39] | 0.0023% | > 0.1% | > 100 µg
12 | CC(C)C(=Nc1ccc(F)c(Cl)c1)OCc1cc(F)cc(Oc2ccc(F)cc2)c1 [Compound 327] | 0.005% | > 0.1% | > 100 µg
13 | CC(C)C(=Nc1ccc(F)c(Cl)c1)OCc1cccc(Oc2ccncc2)c1 [Compound 470] | 0.02% | > 0.1% | 25 µg
14 | CC(C)C(=Nc1ccc(C(C)(C)C)cc1)OCc1cccc(Oc2ccc(Cl)cc2)n1 [Compound 497] | 0.0075% | > 0.1% | > 100 µg
15 | CC(C)C(=Nc1ccc2c(c1)OC(C)(C)O2)OCc1cccc(Oc2ccccc2)c1 [Compound 182] | 0.0006% | 0.04% | 28 µg
16 | CC(C)C(=Nc1cccc(C(F)(F)F)c1)OC(C)c1cccc(Oc2ccccc2)n1 (stereo not drawn) [Compound 499] | 0.0024% | > 0.1% | 63 µg
17 | CC(C)C(=Nc1ccc(F)c(F)c1)OCc1cccc(Oc2ccc(F)cc2F)c1 [Compound 214] | 0.0003% | 0.04% | 19 µg
18 | CC(C)C(=Nc1ccc(F)c(Cl)c1)OCc1cccc(Oc2ccc(C(F)(F)F)cc2)c1 [Compound 247] | 0.009% | > 0.1% | > 100 µg
19 | CC(C)C(=Nc1cccc(C(F)(F)F)c1)OCc1cccc(Oc2ccncc2)c1 [Compound 469] | 0.02% | > 0.1% | 40 µg
20 | CC(C)(C)C(=Nc1cccc(Br)c1)OCc1cccc(Oc2ccccc2)c1 [Compound 134] | 0.015% | > 0.1% | > 100 µg
21 | COc1ccc(N=C(OCc2cccc(Oc3ccc(F)cc3)c2)C(C)C)cc1Cl [Compound 110] | 0.007% | 0.04% | 26 µg
22 | CC(C)C(=Nc1ccc(C2CCCCC2)cc1)OCc1cccc(Oc2ccc(F)cc2)c1 [Compound 280] | 0.024% | > 0.1% | > 100 µg
23 | CC(C)C(=Nc1ccc(C(C)(C)C)c(Cl)c1)OCc1cccc(Oc2ccc(F)cc2)c1 [Compound 308] | 0.009% | > 0.1% | > 100 µg
24 | CC(C)C(=Nc1ccc(C(C)(C)C)cc1)OCc1cccc(Oc2ccccc2)n1 [Compound 496] | 0.006% | > 0.1% | > 100 µg
25 | CSc1cccc(N=C(OCc2cccc(Oc3ccccc3)c2)C(C)C)c1 [Compound 166] | 0.009% | > 0.1% | 22 µg
26 | CC(=O)c1cccc(N=C(OCc2cccc(Oc3ccccc3)c2)C(C)C)c1 [Compound 170] | 0.1% | > 0.1% | 37 µg
27 | Cc1cc(Br)ccc1N=C(OCc1cccc(Oc2ccccc2)c1)C(C)C [Compound 133] | 0.005% | 0.1% | 66 µg

Row | Compound | LC50 CL [1] | LC50 TBW E [2] | LC50 HF [3]
28 | CC(C)C(=Nc1cc(F)c(F)cc1F)OCc1cccc(Oc2ccccc2)c1 [Compound 58] | 0.002% | 0.06% | 16 µg
29 | CC(C)C(=Nc1ccc(C#N)cc1)OCc1cccc(Oc2cccc(Cl)c2)c1 [Compound 208] | 0.0035% | > 0.1% | 27 µg
30 | CC(Br)C(=Nc1ccc(F)c(Cl)c1)OCc1cccc(Oc2ccc(F)cc2)c1 (stereo not drawn) [Compound 305] | 0.048% | > 0.1% | > 100 µg
31 | CC(C)C(=Nc1ccc(Br)c(Br)c1)OCc1cccc(Oc2ccccc2)c1 [Compound 252] | 0.0035% | 0.04% | 34 µg
32 | CC(Br)C(=Nc1ccc(F)c(Cl)c1)OCc1cccc(Oc2ccccc2)c1 (stereo not drawn) [Compound 118] | 0.0013% | > 0.1% | 18 µg
33 | Clc1cccc(N=C(OCc2cccc(Oc3ccccc3)c2)C2CC2)c1 [Compound 24] | 0.005% | 0.1% | 25 µg
34 | CC(C)C(=Nc1ccc(F)cc1)OCc1cccc(Oc2ccc(F)cc2)c1 [Compound 197] | 0.0004% | 0.05% | > 100 µg
35 | COc1cc(N=C(OCc2cccc(Oc3ccccc3)c2)C(C)C)cc(C(F)(F)F)c1 [Compound 76] | 0.002% | 0.05% | 20 µg
36 | CC(C)C(=Nc1ccc(Cl)c(Cl)c1)OCc1cccc(Oc2cccc(F)c2)c1 [Compound 40] | 0.0025% | 0.08% | 36 µg
37 | COc1ccc(C)cc1N=C(OCc1cccc(Oc2ccccc2)c1)C(C)C [Compound 150] | 0.01% | > 0.1% | 89 µg
38 | CC(C)(Cl)C(=Nc1ccc(Cl)c2ccccc12)OCc1cccc(Oc2ccccc2)c1 [Compound 111] | 0.1% | > 0.1% | > 100 µg
39 | Fc1c(F)c(F)c(COC(=Nc2cccc(Cl)c2Cl)C(Cl)Cl)c(F)c1F [Compound 454] | 0.03% | > 0.1% | > 100 µg
40 | CCC(=Nc1ccc(C(C)C)cc1)OCc1cccc(Oc2ccc(F)cc2)c1 [Compound 320] | 0.0075% | > 0.1% | > 100 µg
41 | Cc1cccc(N=C(OCc2cccc(Oc3ccccc3)c2)C(C)C)c1C [Compound 249] | 0.0025% | 0.0365% | 36 µg
42 | CC(C)C(=Nc1c(Cl)cc(Cl)cc1Cl)OCc1cccc(Oc2ccccc2)c1 [Compound 19] | < 0.1% | > 0.1% | > 100 µg
43 | CC(C)C(=Nc1ccc(F)c(F)c1)OCc1coc(Cc2ccccc2)c1 [Compound 485] | > 0.1% | > 0.1% | 24 µg
44 | Cc1ccc(N=C(OCc2cccc(Oc3ccccc3)c2)C(C)(C)C)cc1C [Compound 167] | 0.02% | > 0.1% | > 100 µg
45 | CC(Cl)C(=Nc1ccc(Cl)c(Cl)c1)OCc1cccc(Oc2ccccc2)c1 (stereo not drawn) [Compound 27] | 0.04% | > 0.1% | > 100 µg
46 | CCOC(=O)c1cccc(N=C(OCc2cccc(Oc3ccccc3)c2)C(C)(C)C)c1 [Compound 168] | 0.1% | > 0.1% | > 100 µg
47 | CC(C)C(=Nc1cc(C(F)(F)F)cc(C(F)(F)F)c1)OCc1cccc(Oc2ccccc2)c1 [Compound 78] | 0.0025% | > 0.1% | > 100 µg
48 | CSc1ccc(N=C(OCc2cccc(Oc3ccccc3)c2)C(Cl)Cl)cc1 [Compound 141] | < 0.1% | > 0.1% | 35 µg
49 | CC(C)C(=Nc1ccc(F)c(Cl)c1)OCc1cccc(Oc2ccc(I)cc2)c1 [Compound 447] | 0.0009% | > 0.1% | 33 µg
50 | CCCC(=Nc1ccc(OC)cc1)OCc1cccc(Oc2ccccc2)c1 [Compound 184] | 0.024% | > 0.1% | 61 µg
51 | CCC(C)C(=Nc1ccc(Cl)c(Cl)c1)OCc1cccc(Oc2ccc(F)cc2)c1 (stereo not drawn) [Compound 211] | 0.0017% | > 0.1% | 61 µg
52 | CC(C)C(=Nc1ccc(F)c(Cl)c1)OCc1cccc(Oc2cc(F)cc(F)c2)c1 [Compound 215] | 0.00075% | > 0.1% | 75 µg
53 | CC(C)C(=Nc1ccc(F)c(F)c1)OCc1cccc(Oc2ccc(C#N)cc2)c1 [Compound 212] | 0.0005% | 0.045% | 20 µg
